Assay [1] concerns the target T1, P2Y purinoceptor 6 (Homo sapiens, UniProt Q15077). Nature of the assay: Agonist activity at human recombinant P2Y6 receptor expressed in human 1321N1 cells assessed as [3H]inositol phosphate intracellular accumulation by scintillation proximity assay. It counts as functional, cell-based.
In assay [2] the target is T2, P2Y purinoceptor 2 (Homo sapiens, UniProt P41231). As to the kind of experiment: Agonist activity at human recombinant P2Y2 receptor expressed in human 1321N1 cells assessed as [3H]inositol phosphate intracellular accumulation by scintillation proximity assay. Format: functional, cell-based.
T2 sequence (P41231 whole entry): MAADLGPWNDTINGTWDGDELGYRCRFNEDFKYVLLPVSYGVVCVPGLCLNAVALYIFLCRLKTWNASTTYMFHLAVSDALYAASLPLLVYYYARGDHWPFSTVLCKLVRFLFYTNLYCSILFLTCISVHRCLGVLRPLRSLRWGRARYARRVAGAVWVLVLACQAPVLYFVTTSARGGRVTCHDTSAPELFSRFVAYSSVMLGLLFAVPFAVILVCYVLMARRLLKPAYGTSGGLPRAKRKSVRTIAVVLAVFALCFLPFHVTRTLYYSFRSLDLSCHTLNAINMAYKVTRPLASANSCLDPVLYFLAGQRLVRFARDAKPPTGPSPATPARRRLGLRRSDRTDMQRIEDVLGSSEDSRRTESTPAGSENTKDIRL
Assay [3] concerns the target T3, P2Y purinoceptor 4 (Homo sapiens, UniProt P51582). Nature of the assay: Agonist activity at human recombinant P2Y4 receptor expressed in human 1321N1 cells assessed as [3H]inositol phosphate intracellular accumulation by scintillation proximity assay. Format: functional, cell-based. Background: In a scintillation proximity assay essentially only radioactivity close to the scintillant gives light.

Assay [4] concerns the target T1, P2Y purinoceptor 6. Nature of the assay: Agonist activity at P2Y6 receptor. It counts as functional.
The target of assay [5] is T3, P2Y purinoceptor 4. Nature of the assay: Agonist activity at P2Y4 receptor. It counts as functional.
The species entered for assay [6] is Homo sapiens. Nature of the assay: Selectivity ratio of EC50 for human P2Y6 receptor to EC50 for human P2Y2 receptor.
For assay [7], the species on record is Homo sapiens. As to the kind of experiment: Selectivity ratio of EC50 for human P2Y4 receptor to EC50 for human P2Y2 receptor.
Assay [8] is filed under the species Homo sapiens. Nature of the assay: Selectivity ratio of EC50 for human P2Y6 receptor to EC50 for human P2Y4 receptor.
For assay [9], the species on record is Homo sapiens. Nature of the assay: Selectivity ratio of EC50 for human P2Y2 receptor to EC50 for human P2Y4 receptor.
The target of assay [10] is T2, P2Y purinoceptor 2. As to the kind of experiment: Agonist activity at P2Y2 receptor. Format: functional.
For assay [11], the species on record is Homo sapiens. Nature of the assay: Selectivity ratio of EC50 for human P2Y2 receptor to EC50 for human P2Y6 receptor.
Assay [12] is filed under the species Homo sapiens. Nature of the assay: Selectivity ratio of EC50 for human P2Y4 receptor to EC50 for human P2Y6 receptor.
For assay [13], the target named is T2, P2Y purinoceptor 2. Nature of the assay: Ratio of compound EC50 to UDP EC50 for human recombinant P2Y2 receptor.

This is an account of results in ChEMBL document CHEMBL1765086, “Structural modifications of UMP, UDP, and UTP leading to subtype-selective agonists for P2Y2, P2Y4, and P2Y6 receptors” (J Med Chem, 2011).

T3 sequence (P51582 whole entry): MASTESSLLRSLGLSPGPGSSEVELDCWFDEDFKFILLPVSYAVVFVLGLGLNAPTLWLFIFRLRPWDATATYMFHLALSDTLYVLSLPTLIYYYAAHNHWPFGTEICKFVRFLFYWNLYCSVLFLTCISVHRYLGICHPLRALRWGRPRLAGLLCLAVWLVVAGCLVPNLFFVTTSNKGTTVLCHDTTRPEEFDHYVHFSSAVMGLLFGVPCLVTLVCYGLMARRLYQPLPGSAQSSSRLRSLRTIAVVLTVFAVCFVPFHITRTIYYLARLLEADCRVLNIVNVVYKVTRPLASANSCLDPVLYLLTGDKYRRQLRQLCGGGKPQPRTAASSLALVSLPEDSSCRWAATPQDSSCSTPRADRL
T1 sequence (Q15077 whole entry): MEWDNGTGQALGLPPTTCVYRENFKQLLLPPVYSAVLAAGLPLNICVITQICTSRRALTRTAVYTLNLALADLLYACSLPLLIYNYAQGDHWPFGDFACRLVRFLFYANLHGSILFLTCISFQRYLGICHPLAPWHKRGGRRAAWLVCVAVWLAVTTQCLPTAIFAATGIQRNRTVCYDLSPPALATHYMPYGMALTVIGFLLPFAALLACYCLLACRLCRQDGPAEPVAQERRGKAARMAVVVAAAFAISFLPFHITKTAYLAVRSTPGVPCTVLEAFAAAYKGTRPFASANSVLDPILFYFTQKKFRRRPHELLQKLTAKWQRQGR

By EC50 is commonly meant the concentration needed to bring the measured effect to its halfway point. Take `CNc1nc(=O)ccn1[C@@H]1O[C@H](COP(=O)(O)O)[C@@H](O)[C@H]1O`: the EC50 at P2Y purinoceptor 6 [1], at P2Y purinoceptor 2 [2] and at P2Y purinoceptor 4 [3] was more than 100 µM each time.
Regarding `O=c1ccn([C@@H]2O[C@H](COP(=O)(O)OP(=O)(O)OP(=O)(O)OP(=O)(O)OC[C@H]3O[C@@H](n4ccc(=O)[nH]c4=O)[C@H](O)[C@@H]3O)[C@@H](O)[C@H]2O)c(=O)[nH]1` [DIQUAFOSOL TETRASODIUM], the EC50 on P2Y purinoceptor 6 [4] came out at 2 µM; on P2Y purinoceptor 4 [5] it was 0.4 µM.
`O=c1[nH]c(=S)ccn1[C@@H]1O[C@H](COP(=O)(O)OP(=O)(O)OP(=O)(O)O)[C@@H](O)[C@H]1O`: the EC50 at P2Y purinoceptor 4 [5] came to 0.023 µM; on P2Y purinoceptor 2 [2] it was 0.026 µM; on P2Y purinoceptor 4 [3], 0.023 µM.
Consider `COc1nc(=O)ccn1[C@@H]1O[C@H](COP(=O)(O)O)[C@@H](O)[C@H]1O`, for which the values for the EC50 at P2Y purinoceptor 6 [1], on P2Y purinoceptor 2 [2] and at P2Y purinoceptor 4 [3] were 9.8 µM, 9.9 µM and more than 100 µM, respectively.
The corresponding values for `O=c1ccn([C@@H]2O[C@H](COP(=O)(O)OP(=O)(O)O)[C@@H](O)[C@H]2O)c(SCc2ccccc2)n1` are 6.8 µM, 6.2 µM and 5.98 µM.
The corresponding values for `O=c1ccn([C@@H]2O[C@H](COP(=O)(O)O)[C@@H](O)[C@H]2O)c(SCc2ccccc2)n1` are more than 100 µM, not below 100 µM and more than 100 µM.
On to `COc1nc(=O)ccn1[C@@H]1O[C@H](COP(=O)(O)OP(=O)(O)O)[C@@H](O)[C@H]1O`, for which the results for the EC50 on P2Y purinoceptor 6 [1], at P2Y purinoceptor 2 [2] and on P2Y purinoceptor 4 [3] were 1.37 µM, 0.907 µM and 4.49 µM, respectively.
The corresponding values for `O=c1[nH]c(=S)ccn1[C@@H]1O[C@H](COP(=O)(O)O)[C@@H](O)[C@H]1O` are more than 100 µM, more than 100 µM and more than 100 µM.
As for `O=c1[nH]c(=S)ccn1[C@@H]1O[C@H](COP(=O)(O)OP(=O)(O)C(F)(F)P(=O)(O)O)[C@@H](O)[C@H]1O`, the concentration for a half-maximal effect (EC50) at P2Y purinoceptor 6 [1] turned out to be 7 µM; at P2Y purinoceptor 2 [2], 0.134 µM; at P2Y purinoceptor 4 [3] it was 9.3 µM. Besides, the Ratio EC50 in the assay filed under Homo sapiens [6] and in the assay filed under Homo sapiens [7] was more than 60 in each case.
In the case of `O=c1ccn([C@@H]2O[C@H](COP(=O)(O)OP(=O)(O)C(F)(F)P(=O)(O)O)[C@@H](O)[C@H]2O)c(=O)[nH]1`, the EC50 at P2Y purinoceptor 6 [1] was 2.63 µM; at P2Y purinoceptor 2 [2] it was 4.9 µM; at P2Y purinoceptor 4 [3] it was more than 100 µM. Further, the Ratio EC50 in the assay listed under Homo sapiens [6] came to 2.
As for `Nc1nc(=O)ccn1[C@@H]1O[C@H](COP(=O)(O)O)[C@@H](O)[C@H]1O`, the EC50 at P2Y purinoceptor 6 [1] and at P2Y purinoceptor 2 [2] was more than 100 µM throughout. The Ratio EC50 in the assay filed under Homo sapiens [6] was more than 100; in the assay listed under Homo sapiens [8], more than 20; in the assay listed under Homo sapiens [9], more than 20; in the assay filed under Homo sapiens [7] it was more than 100.
Consider `Nc1ccn([C@H]2C[C@H](O)[C@@H](COP(=O)(O)OP(=O)(O)OP(=O)(O)OP(=O)(O)OC[C@H]3O[C@@H](n4ccc(=O)[nH]c4=O)[C@H](O)[C@@H]3O)O2)c(=O)n1` [DENUFOSOL TETRASODIUM], for which the values for the EC50 at P2Y purinoceptor 6 [4], at P2Y purinoceptor 4 [5] and on P2Y purinoceptor 2 [10] were more than 1 µM, 0.8 µM and 0.2 µM, respectively.
Take `O=c1ccn([C@@H]2O[C@H](COP(=O)(O)O)[C@@H](O)[C@H]2O)c(SCCc2ccccc2)n1`: the concentration for a half-maximal effect (EC50) on P2Y purinoceptor 6 [1] is more than 100 µM; at P2Y purinoceptor 2 [2], 1.3 µM; on P2Y purinoceptor 4 [3], more than 100 µM. Further, the Ratio EC50 in the assay listed under Homo sapiens [6] is 100; in the assay listed under Homo sapiens [7] it was more than 100.
Turning to `O=c1[nH]c(=S)ccn1[C@@H]1O[C@H](COP(=O)(O)OP(=O)(O)C(Cl)(Cl)P(=O)(O)O)[C@@H](O)[C@H]1O`, the EC50 is 8.1 µM on P2Y purinoceptor 6 [1], 1.81 µM at P2Y purinoceptor 2 [2] and 7.87 µM on P2Y purinoceptor 4 [3].
Take `O=C(Cn1c(=O)ccn([C@@H]2O[C@H](COP(=O)(O)OP(=O)(O)C(Cl)(Cl)P(=O)(O)O)[C@@H](O)[C@H]2O)c1=O)c1ccccc1`: the EC50 on P2Y purinoceptor 6 [1] amounted to 0.142 µM; at P2Y purinoceptor 2 [2], 0.826 µM; at P2Y purinoceptor 4 [3], 7.3 µM. Besides, the Ratio EC50 in the assay listed under Homo sapiens [11] is 6; in the assay filed under Homo sapiens [12], 50.
As for `CSc1nc(=O)ccn1[C@@H]1O[C@H](COP(=O)(O)OP(=O)(O)O)[C@@H](O)[C@H]1O`, the EC50 was 4.7 µM at P2Y purinoceptor 6 [1], 0.523 µM at P2Y purinoceptor 2 [2] and 1.52 µM at P2Y purinoceptor 4 [3]. The Ratio EC50 at P2Y purinoceptor 2 [13] came out at 33.
Take `O=c1ccn([C@@H]2O[C@H](COP(=O)(O)OP(=O)(O)O)[C@@H](O)[C@H]2O)c(=O)[nH]1` [URIDINE_DIPHOSPHATE]: the results for the EC50 at P2Y purinoceptor 6 [1], at P2Y purinoceptor 2 [2] and on P2Y purinoceptor 4 [3] were 0.048 µM, 16.5 µM and 14 µM, respectively.
The corresponding values for `O=c1ccn([C@@H]2O[C@H](COP(=O)(O)OP(=O)(O)C(Cl)(Cl)P(=O)(O)O)[C@@H](O)[C@H]2O)c(=S)[nH]1` are 7.7 µM, 0.794 µM and 3.85 µM.
For `CSc1nc(=O)ccn1[C@@H]1O[C@H](COP(=O)(O)O)[C@@H](O)[C@H]1O`, the EC50 is more than 100 µM at P2Y purinoceptor 6 [1], 2.9 µM at P2Y purinoceptor 2 [2] and more than 100 µM on P2Y purinoceptor 4 [3].
Regarding `CNc1nc(=O)ccn1[C@@H]1O[C@H](COP(=O)(O)OP(=O)(O)O)[C@@H](O)[C@H]1O`, the 50% effective concentration (EC50) was more than 100 µM at P2Y purinoceptor 6 [1], 7.6 µM at P2Y purinoceptor 2 [2] and not below 100 µM at P2Y purinoceptor 4 [3].
In the case of `O=c1ccn([C@@H]2O[C@H](COP(=O)(O)OP(=O)(O)C(Cl)(Cl)P(=O)(O)O)[C@@H](O)[C@H]2O)c(=O)[nH]1`, the values for the EC50 at P2Y purinoceptor 6 [1], at P2Y purinoceptor 2 [2] and on P2Y purinoceptor 4 [3] were 6.2 µM, 0.612 µM and not below 100 µM, respectively.
Consider `O=c1ccn([C@@H]2O[C@H](COP(=O)(O)OP(=O)(O)OP(=O)(O)O)[C@@H](O)[C@H]2O)c(=O)[nH]1` [URIDINE TRIPHOSPHATE], for which the EC50 stood at 0.0179 µM at P2Y purinoceptor 2 [2] and 0.0884 µM on P2Y purinoceptor 4 [3].
As to `CCCSc1nc(=O)ccn1[C@@H]1O[C@H](COP(=O)(O)O)[C@@H](O)[C@H]1O`, the concentration giving a half-maximal response (EC50) at P2Y purinoceptor 6 [1] is 6.2 µM; on P2Y purinoceptor 2 [2], 4.8 µM; at P2Y purinoceptor 4 [3], more than 100 µM.
Regarding `O=C(Cn1c(=O)ccn([C@@H]2O[C@H](COP(=O)(O)OP(=O)(O)C(F)(F)P(=O)(O)O)[C@@H](O)[C@H]2O)c1=O)c1ccccc1`, the EC50 was determined as 1.46 µM on P2Y purinoceptor 6 [1], 1.2 µM at P2Y purinoceptor 2 [2] and 3.93 µM at P2Y purinoceptor 4 [3].
`O=c1ccn([C@@H]2O[C@H](COP(=O)(O)OP(=O)(O)O)[C@@H](O)[C@H]2O)c(SCCc2ccccc2)n1`: the EC50 was 2.5 µM on P2Y purinoceptor 6 [1], 0.544 µM on P2Y purinoceptor 2 [2] and not below 100 µM at P2Y purinoceptor 4 [3].
The like results for `O=c1[nH]c(=O)n([C@@H]2O[C@H](COP(=O)(O)OP(=O)(O)OP(=O)(O)Nc3ccccc3)[C@@H](O)[C@H]2O)cc1Br` were, in that order, 6.1 µM, 1.8 µM and more than 100 µM.
The like results for `CCSc1nc(=O)ccn1[C@@H]1O[C@H](COP(=O)(O)O)[C@@H](O)[C@H]1O` were, in that order, more than 100 µM, 1.5 µM and 4.33 µM.
The corresponding values for `CCCSc1nc(=O)ccn1[C@@H]1O[C@H](COP(=O)(O)OP(=O)(O)O)[C@@H](O)[C@H]1O` are not below 100 µM, 1.2 µM and 4.9 µM.
Take `Nc1nc(=O)ccn1[C@@H]1O[C@H](COP(=O)(O)OP(=O)(O)O)[C@@H](O)[C@H]1O`: the half-maximal effective concentration (EC50) on P2Y purinoceptor 6 [1] is not below 100 µM; on P2Y purinoceptor 2 [2], 0.604 µM; at P2Y purinoceptor 4 [3], not below 100 µM. Also, the Ratio EC50 in the assay filed under Homo sapiens [6] and in the assay filed under Homo sapiens [7] was more than 100 in each case.
